In patent US20230257429A1, “PEPTIDE ADJUVANT FOR ITS THERAPEUTIC APPLICATIONS IN VIRAL AND TUMOUR VACCINE DEVELOPMENT AND CANCER IMMUNOTHERAPY AND AUTOIMMUNE DISEASE DIAGNOSIS AND TREATMENTS” (National University of Singapore, priority 2020, published 2023):
Entries after “also recorded” stand apart in the source; their conditions may differ. Ends that are not written are not given here.

What was measured:
[1] = system: monocytes; test: Monocyte activation, TNFα and IL-1β ELISA; format: cell-based, human; details: for TNFα and IL-1β production from monocytes: protein coated on plates, ELISA; for TNFα induction from monocytes (7 NCL peptides): peptides 50 or 200 μg/ml
Method: (§1) Buffy coat fractions were obtained from healthy blood donors at the Singapore Health Sciences Authority, with Institutional ethics approval, and PBMC were isolated using Ficoll-Paque (GE Healthcare). To isolate monocytes, PBMC were re-suspended to 1×10^7 cells/ml in the RPMI medium contained 5% (v/v) BCS and incubated for 1 hr in T75 flasks (20 ml/flask). Monocytes that adhered were harvested. To culture macrophages and DC [Cao, W., et al., Blood 107: 2777-2785, (2006), incorporated herein by reference], monocytes were resuspended to 1×10^6 cells/ml and cultured in 6-well plates (2 ml/well). Macrophages were cultured by adding M-CSF to 20 ng/ml and DC were cultured with 20 ng/ml GM-CSF and 40 ng/ml IL-4. M-CSF, GM-CSF and IL-4 were obtained from R&D Systems (Mineapolis, Minn.). Cells were cultured for 6 days with half of the media being replenished every two days.
[…] Where TLR ligands were used to stimulate these cells, they were added to the media: LPS (500 ng/ml for DC and macrophages and 10 ng/ml for PMBC and monocytes, InvivoGen), flagellin (1 μg/ml, InvivoGen), lipoteichic acid (LTA, 10 μg/ml). Cell activation was determined by measuring TNFα and IL-1β in the culture media using ELISA kits (Invitrogen).

[2] = target: T1, TLR2 (Homo sapiens, UniProt O60603); test: TLR2 binding assay (ELISA plate); design: purchased R&D Systems; details: for TLR2 binding to coated NCL-HA mutants (summary experiment): TLR2 2 μg/ml; for soluble protein binding to coated TLR2: protein 0-20 μg/ml, anti-HA detection; for peptide binding to coated TLR2: biotin peptides at increasing concentrations; for TLR2 binding at the highest concentration tested: peptide 200 μg/ml
[3] = system: PBMC; test: PBMC activation, TNFα and IL-1β ELISA; format: cell-based, human; design: PBMC activation (TNFα) by FBRL peptides: dose or concentration left out as unconfirmed; details: peptides added to 50 or 160, 24 hr
[4] = system: PBMC; test: Peptide binding to and penetration of PBMC, flow cytometry; format: cell-based, human; details: for intracellular pool / cell penetration (CPP activity) in PBMC / CPP activity compared with NCL-P2: 1 hr at 4° C.; for intracellular pool / cell penetration (CPP activity) in PBMC: fixed/permeabilized, streptavidin-AF488; for CPP activity compared with NCL-P2: PBMC, peptide 200 μg/ml
Method: PBMC re-suspended in 100 μl macrophage serum free media (3×10^6/ml) were incubated with different peptides (200 μg/ml). PBMC (100 μl) were incubated with the peptides for 1 hr at 37° C. or 4° C. Cells were washed twice in 2% FBS/PBS and incubated with streptavidin-AF488 and Zombie (NIR) Fixable viability stain-APC-Cy7 for 30 min at 4° C. Cells were then fixed with 1% PFA for 30 min at room temperature and analysed using the Fortessa analyser (BD). In some experiments, PBMC were, after incubation with peptides, incubated with Zombie (NIR) Fixable viability stain (APC-Cy7) for 30 min at 4° C. Cells were then fixed and permeabilized with BD CYTOFIX/CYTOPERM™ Kit for 20 min at 4° C., and then incubated with streptavidin-AF488 for 30 min at 4° C. In some experiments, PBMC were, after incubation with the peptides, stained with fluorescent mouse antibodies specific for monocytes (CD14/BV711), T cells (CD3/PerCP-Cy5-5) and B cells (CD19/Pacific blue). Cells were then stained with Zombie (NIR) Fixable viability stain-APC-Cy7 and streptavin-AF488, with or without membrane permeabilization. In these experiments, monocytes, T cells and B cells were separately gated to detect surface peptide binding and intracellular peptide penetration.

[5] = system: PBMC; test: PBMC activation, TNFα and IL-1β ELISA; format: cell-based, human; details: PBMC stimulated 24 hr, TNFα in media
Method: as §1
Purified proteins in PBS (30 μg/ml) were coated in triplicates in 96-well plates (50 μl/well) for 12 hr and PBMC (3×10^6 cells/ml), monocytes (1×10^6 cells/ml), macrophages (0.5×10^6 cells/ml) or DC (0.5×10^6 cells/ml) were re-suspended in macrophage serum-free medium containing penicillin and streptomycin and cultured for 24 hr in these plates at 100 μl/well. Where TLR ligands were used to stimulate these cells, they were added to the media: LPS (500 ng/ml for DC and macrophages and 10 ng/ml for PMBC and monocytes, InvivoGen), flagellin (1 μg/ml, InvivoGen), lipoteichic acid (LTA, 10 μg/ml). Cell activation was determined by measuring TNFα and IL-1β in the culture media using ELISA kits (Invitrogen).

[6] = target: T1, TLR2; test: TLR and NF-κB-luciferase assay in 293T cells, TLR2/TLR1/TLR6/TLR10; format: cell-based; design: expressed in transfected cells; host or cells: human embryonic kidney 293T cells; details: peptides 200 μg/ml, 24 hr
Method: TLR-mediated NF-κB activation was determined using a Dual Luciferase Reporter Assay (Promega), in which two luciferase reporter plasmids were used. […] Transfection was performed using the TurboFect Transfection Reagent (Thermo Fisher Scientific). After 24 hr, cells were harvested and cultured for 24 hr in 96-well plates coated with the purified proteins or, as controls, cultured in blank plates but stimulated with TLR ligands. Cells were lysed to measure both firefly and Renilla luciferase activities and, in each sample, the firefly activity was normalized to the Renilla luciferase activity and expressed as relative NF-κB activation.
TLRs and, where it required, co-receptors were co-transfected in a total of 4 combinations, i.e. TLR2/1/6/10, TLR4/CD14/MD2, TLR5, or TLR3/7/8/9. Two luciferase expression vectors were used: one expresses the firefly luciferase under 5 repeats of the NF-κB gene promoter and the other expresses the Renilla luciferase under the constitutively active CMV promoter (FIG. 3A).

[7] = target: T2, Recombinant human TLR2-10×His (R&D Systems) (human, UniProt O60603 21-590); test: ELISA: biotin peptide on coated TLR2
T2 construct: Bought protein; also called His-tagged TLR2
T2 sequence (O60603 other isoform, or with tags, fused parts or gaps limits assumed): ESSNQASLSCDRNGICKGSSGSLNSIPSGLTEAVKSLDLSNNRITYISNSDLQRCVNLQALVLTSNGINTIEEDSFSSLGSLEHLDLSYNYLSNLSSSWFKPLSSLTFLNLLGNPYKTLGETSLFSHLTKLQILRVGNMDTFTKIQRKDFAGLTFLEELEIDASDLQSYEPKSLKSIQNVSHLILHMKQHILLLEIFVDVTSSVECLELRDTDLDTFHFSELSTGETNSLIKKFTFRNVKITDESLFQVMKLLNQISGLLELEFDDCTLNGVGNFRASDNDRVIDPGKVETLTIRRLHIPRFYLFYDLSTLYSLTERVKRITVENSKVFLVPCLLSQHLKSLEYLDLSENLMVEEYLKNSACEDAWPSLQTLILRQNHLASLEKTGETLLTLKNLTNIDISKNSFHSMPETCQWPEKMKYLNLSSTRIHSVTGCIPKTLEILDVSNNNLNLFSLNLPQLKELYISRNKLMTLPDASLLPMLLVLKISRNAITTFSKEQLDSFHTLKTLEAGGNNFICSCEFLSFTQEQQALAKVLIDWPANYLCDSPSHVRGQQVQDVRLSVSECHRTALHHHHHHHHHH

Molecule: NCL(670)-HA: NCL-HA C-terminal deletion mutant of 670 residues with a residual GAR/RGG region
- TNFα and IL-1β production from monocytes ([1]; 24 hr): no longer stimulates monocytes; also recorded: apparently insufficient
- TLR2 binding to coated NCL-HA mutants (summary experiment) ([2]; protein coated 10 μg/ml): weak binding

Molecule: RGGGFGGRGGFGDRGGRGGRGG (FBRL-P1)
- PBMC activation (TNFα) by FBRL peptides [3]: activated PBMC

Molecule: NCL(522)-HA: NCL-HA C-terminal deletion mutant of 522 residues which lacks the GAR/RGG region
- soluble protein binding to coated TLR2 ([2]; TLR2 coated 2 μg/ml): not observed

Molecule: RGGFGGRGGGRGGRGGFGGRG (NCL-P6)
- TNFα induction from monocytes (7 NCL peptides) ([1]; 24 hr): induced TNFα; also recorded: minor adjuvant activity
- intracellular pool / cell penetration (CPP activity) in PBMC [4]: all lacked cell penetration; also recorded: diminished CPP activities
- concentration at which saturated TLR2 binding was reached ([2]; TLR2 coated 2 μg/ml): 80 µg/mL
- peptide binding to coated TLR2 ([2]; TLR2 coated 2 μg/ml): largely replicated NCL-P2 in TLR2 binding

Molecule: GGFGGRGGGRGGFGGRGGGRGGRGGFGGRGRG (NCL-P1)
- cytokine induction, soluble versus coated (immobilized) form ([1]; monocytes, 24 hr): induced more cytokines than immobilized peptides
- TNFα induction from monocytes (7 NCL peptides) ([1]; 24 hr): induced TNFα
- TNFα induction from monocytes at lower concentrations ([1]; soluble peptide 10 and 20 μg/ml): induced little TNFα
- TNFα induction from monocytes at higher concentrations ([1]; soluble peptide 80 and 160 μg/ml): strongly induced TNFα production
- intracellular pool / cell penetration (CPP activity) in PBMC [4]: accumulate intracellular pools
- peptide binding to coated TLR2 ([2]; TLR2 coated 2 μg/ml): dose-dependent and saturable binding to TLR2

Molecule: NCL-P4: peptide representing the N-terminal half of NCL-P6 (RGGFGGRGGG; NCL-P4)
- intracellular pool / cell penetration (CPP activity) in PBMC [4]: all lacked cell penetration
- TLR2 binding at the highest concentration tested [2]: no TLR2 binding

Molecule: GGFGGKGGGKGGKGGFGGKGKGGFGGKGGFKGGKGG (NCL-P2R/K)
- adjuvant (alarmin) activity compared with NCL-P2 [5]: lost CPP as well as alarmin activity
- adjuvant (alarmin) activity compared with NCL-P2 ([5]; listed as R/K mutant of NCL-P2): lost its adjuvant activity
- adjuvant (alarmin) activity compared with NCL-P2 ([5]; listed as SEQ ID NO: 20): completely abolished its adjuvant activity
- CPP activity compared with NCL-P2 [4]: lost CPP as well as alarmin activity
- PBMC penetration at 37° C. or 4° C. ([4]; compared with NCL-P2): no longer penetrates PBMC

Molecule: GGYGGRGGGRGGRGGYGGRGRGGYGGRGGYRGGRGG (NCL-P2F/Y)
- adjuvant (alarmin) activity compared with NCL-P2 [5]: alarmin activity was diminished; also recorded: no significant alarmin activity
- adjuvant (alarmin) activity compared with NCL-P2 ([5]; listed as SEQ ID NO: 23): markedly diminished its adjuvant activity
- CPP activity compared with NCL-P2 [4]: gained significant CPP activity; also recorded: have cell-penetrating activity

Molecule: GGRGGRGGGRGGRGGRGGRGRGGRGGRGGRRGGRGG (NCL-P2F/R)
- adjuvant (alarmin) activity compared with NCL-P2 [5]: losing significant alarmin activity; also recorded: no significant alarmin activity
- adjuvant (alarmin) activity compared with NCL-P2 ([5]; listed as P2F/R): reduced alarmin activity; also recorded: diminished alarmin activities
- adjuvant (alarmin) activity compared with NCL-P2 ([5]; listed as SEQ ID NO: 21): substantially reduced its adjuvant activity
- increase in CPP activity compared with NCL-P2 [4]: approx. 8 fold
- CPP activity compared with NCL-P2 [4]: gained substantial CPP activity; also recorded: have cell-penetrating activity
- CPP activity compared with NCL-P2 ([4]; listed as P2F/R): strong CPP

Molecule: NCL(698)-HA: NCL-HA mutant in which 12 amino acids were deleted from the C-terminal end
- TNFα and IL-1β production from monocytes ([1]; 24 hr): continued to stimulate monocytes
- TLR2 binding to coated NCL-HA mutants (summary experiment) ([2]; protein coated 10 μg/ml): bound

Molecule: NCL-P3: control peptide covering the C-terminal 12 residues of NCL outside the GAR/RGG domain (DHKPQGKKTKFE; NCL-P3)
- TNFα induction from monocytes, all concentrations ([1]; soluble peptide 10 to 160 μg/ml, 24 hr): no TNFα induction
- intracellular pool / cell penetration (CPP activity) in PBMC [4]: no intracellular pool; also recorded: not a 12-AA non-GAR/RGG peptide
- peptide binding to coated TLR2 ([2]; TLR2 coated 2 μg/ml): no detectable binding; also recorded: lacked TLR2 binding
- TLR2-mediated NF-κB activation by peptides [6]: not observed

Molecule: NCL(649)-HA: NCL-HA C-terminal deletion mutant which lacks the GAR/RGG region
- soluble protein binding to coated TLR2 ([2]; TLR2 coated 2 μg/ml): not observed
- His-tagged TLR2 binding to coated protein ([2]; protein coated 10 μg/ml, TLR2 0.375-6.0 μg/ml): no binding

Molecule: NCL-P5: peptide representing the C-terminal half of NCL-P6 (RGGRGGFGGRG; NCL-P5)
- intracellular pool / cell penetration (CPP activity) in PBMC [4]: all lacked cell penetration
- TLR2 binding at the highest concentration tested [2]: low level of TLR2 binding

Molecule: RGGFGGGRGRGGGFRGRGRGG (FBRL-P2)
- PBMC activation (TNFα) by FBRL peptides [3]: activated PBMC

B1: NCL-P1 peptide (32 residues), N-terminal biotin (peptide)
peptide: GGFGGRGGGRGGFGGRGGGRGGRGGFGGRGRG
modifications: not fully specified (N-terminus)
notes: Synthetic peptide
- binding result [7]: binds

B2: NCL-P5 peptide, N-terminal biotin (peptide)
peptide: RGGRGGFGGRG
modifications: not fully specified (N-terminus)
notes: Synthetic peptide
- binding result [7]: binds

B3: NCL-P4 peptide, N-terminal biotin (peptide)
peptide: RGGFGGRGGG
modifications: not fully specified (N-terminus)
notes: Synthetic peptide; also called NCL-4
- binding result [7]: no binding (tested: 200 µg/ml)

B4: NCL-P3 control peptide (C-terminal 12 residues of NCL), N-terminal biotin (peptide)
peptide: DHKPQGKKTKFE
modifications: not fully specified (N-terminus)
notes: Synthetic peptide
- binding result [7]: no binding (tested: 0.64 to 1,000 ng/ml)
